Data as given in the supplement of paper PMC11451515.

Test system: SEM cells
Test: cell viability relative to DMSO control; higher = less cytotoxic
Settings: 48 h
Summary of the method: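 Viability values are per-plate percentages of DMSO wells, with background from cell-free wells. Library compounds in DMSO were pin-dosed, in an 11-point threefold series from 47 μM to 0.79 nM, onto NOMO1 or SEM (500 cells/well) or P12-Ichikawa (1000 cells/well) leukemia cells in 1536-well plates (5 μl). Those cells had been adapted for at least four passages in each medium, and CellTiter-Glo One luminescence was read after 48 h at 37°C.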

[1] = HPLM + 10% dialyzed FBS, 0.000781 µM
[2] = HPLM + 10% dialyzed FBS, 0.00234 µM
[3] = HPLM + 10% dialyzed FBS, 0.00702 µM
[4] = HPLM + 10% dialyzed FBS, 0.0211 µM
[5] = HPLM + 10% dialyzed FBS, 0.0632 µM
[6] = HPLM + 10% dialyzed FBS, 0.19 µM
[7] = HPLM + 10% dialyzed FBS, 0.569 µM
[8] = HPLM + 10% dialyzed FBS, 1.71 µM
[9] = HPLM + 10% dialyzed FBS, 5.12 µM
[10] = HPLM + 10% dialyzed FBS, 15.4 µM
[11] = HPLM + 10% dialyzed FBS, 46.1 µM
[12] = RPMI 5 mM glucose + 10% FBS, 0.000781 µM
[13] = RPMI 5 mM glucose + 10% FBS, 0.00234 µM
[14] = RPMI 5 mM glucose + 10% FBS, 0.00702 µM
[15] = RPMI 5 mM glucose + 10% FBS, 0.0211 µM
[16] = RPMI 5 mM glucose + 10% FBS, 0.0632 µM
[17] = RPMI 5 mM glucose + 10% FBS, 0.19 µM
[18] = RPMI 5 mM glucose + 10% FBS, 0.569 µM
[19] = RPMI 5 mM glucose + 10% FBS, 1.71 µM
[20] = RPMI 5 mM glucose + 10% FBS, 5.12 µM
[21] = RPMI 5 mM glucose + 10% FBS, 15.4 µM
[22] = RPMI 5 mM glucose + 10% FBS, 46.1 µM
[23] = RPMI 5 mM glucose + 10% dialyzed FBS, 0.000781 µM
[24] = RPMI 5 mM glucose + 10% dialyzed FBS, 0.00234 µM
[25] = RPMI 5 mM glucose + 10% dialyzed FBS, 0.00702 µM
[26] = RPMI 5 mM glucose + 10% dialyzed FBS, 0.0211 µM
[27] = RPMI 5 mM glucose + 10% dialyzed FBS, 0.0632 µM
[28] = RPMI 5 mM glucose + 10% dialyzed FBS, 0.19 µM
[29] = RPMI 5 mM glucose + 10% dialyzed FBS, 0.569 µM
[30] = RPMI 5 mM glucose + 10% dialyzed FBS, 1.71 µM
[31] = RPMI 5 mM glucose + 10% dialyzed FBS, 5.12 µM
[32] = RPMI 5 mM glucose + 10% dialyzed FBS, 15.4 µM
[33] = RPMI 5 mM glucose + 10% dialyzed FBS, 46.1 µM

| SMILES | cell viability [1] | cell viability [2] | cell viability [3] | cell viability [4] | cell viability [5] | cell viability [6] | cell viability [7] | cell viability [8] | cell viability [9] | cell viability [10] | cell viability [11] | cell viability [12] | cell viability [13] | cell viability [14] | cell viability [15] | cell viability [16] | cell viability [17] | cell viability [18] | cell viability [19] | cell viability [20] | cell viability [21] | cell viability [22] | cell viability [23] | cell viability [24] | cell viability [25] | cell viability [26] | cell viability [27] | cell viability [28] | cell viability [29] | cell viability [30] | cell viability [31] | cell viability [32] | cell viability [33] |
| --- | --- | --- | --- | --- | --- | --- | --- | --- | --- | --- | --- | --- | --- | --- | --- | --- | --- | --- | --- | --- | --- | --- | --- | --- | --- | --- | --- | --- | --- | --- | --- | --- | --- |
| CC(C)C[C@H](NC(=O)[C@H](CCc1ccccc1)NC(=O)CN1CCOCC1)C(=O)N[C@@H](Cc1ccccc1)C(=O)N[C@@H](CC(C)C)C(=O)[C@@]1(C)CO1 | 84.6% | 86.5% | 100% | 8.14% | 7.13% | 7.08% | 6.63% | 5.14% | 4.16% | 1.67% | 1.47% | 97.5% | 102% | 65.7% | 8.2% | 7.68% | 6.95% | 7.46% | 4.9% | 2.81% | 1.52% | 1.37% | 72.1% | 81.7% | 80.6% | 8.46% | 7.46% | 7.29% | 6.73% | 4.71% | 3.02% | 1.73% | 1.54% |
| COc1cc2ncnc(Nc3ccc(F)c(Cl)c3)c2cc1NC(=O)/C=C/CN1CCCCC1 | 94.2% | 112% | 110% | 102% | 105% | 99.1% | 94.6% | 85.5% | 76.7% | 71.4% | 42.4% | 119% | 129% | 120% | 119% | 122% | 117% | 124% | 91.3% | 88.6% | 80.2% | 42.3% | 97.9% | 85.6% | 96.4% | 116% | 93.3% | 87% | 104% | 76.6% | 77.6% | 66.7% | 41.3% |
| O=C(c1ccc(Nc2nccc(-c3cc4ccccc4s3)n2)cc1)N1CCC(N2CCCC2)CC1 | 103% | 107% | 108% | 110% | 102% | 104% | 99.3% | 82.4% | 65.2% | 10.8% | 2.34% | – | – | – | – | – | – | – | – | – | – | – | 105% | 120% | 98.2% | 118% | 106% | 114% | 108% | 97.9% | 69.3% | 28.2% | 2.16% |
| O=C(NC[C@H](O)CO)c1ccncc1Nc1ccc(I)cc1F | 94.4% | 104% | 38.1% | 118% | 106% | 105% | 88.3% | 83.4% | 85.7% | 85.4% | 64.4% | 94.4% | 97.6% | 19.3% | 101% | 108% | 89.2% | 85.7% | 80.1% | 68.3% | 64.6% | 43.6% | 97.2% | 108% | 35.1% | 99% | 99.8% | 85.3% | 84.2% | 70.3% | 72.7% | 56.3% | 54.7% |
| Nc1nc(N)c2nc(CNc3ccc(C(=O)NC(CCC(=O)O)C(=O)O)cc3)cnc2n1 (stereo unspecified) | 104% | 114% | 110% | 127% | 57.2% | 36.6% | 39.5% | 45.6% | 48.6% | 41.8% | 46.5% | 111% | 115% | 120% | 110% | 92.2% | 56.5% | 83% | 76.4% | 99.7% | 86.5% | 87.5% | 96.2% | 103% | 104% | 104% | 30.5% | 23.7% | 23.1% | 23.1% | 28.8% | 29.6% | 23.8% |
| Cc1[nH]c2ccccc2c1CCNCc1ccc(/C=C/C(=O)NO)cc1 | 99.1% | 114% | 112% | 114% | 116% | 75.8% | 12.3% | 7.29% | 8.44% | 8.29% | 8.77% | 85.6% | 88.8% | 101% | 94.3% | 92.5% | 74.1% | 12.6% | 5.77% | 7.04% | 7.05% | 7.05% | 89.9% | 106% | 108% | 115% | 112% | 81.6% | 19.5% | 7.59% | 8.77% | 8.45% | 9.84% |
| COC(=O)[C@@H]1[C@H]2C[C@H]3c4[nH]c5ccccc5c4CCN3C[C@@H]2CC[C@@H]1O | 86.1% | 90.4% | 102% | 110% | 104% | 110% | 120% | 115% | 116% | 120% | 116% | 94.7% | 112% | 122% | 104% | 110% | 110% | 135% | 119% | 120% | 128% | 125% | 98.6% | 109% | 108% | 120% | 125% | 124% | 119% | 133% | 130% | 133% | 118% |
| COc1cc2nccc(Oc3ccc(NC(=O)NC4CC4)c(Cl)c3)c2cc1C(N)=O | 116% | 117% | 126% | 118% | 108% | 108% | 88.7% | 79.2% | 69.1% | 56.2% | 51.4% | 93.5% | 117% | 105% | 98.4% | 97.1% | 98.8% | 72.2% | 80.4% | 63.2% | 44.2% | 32.1% | 119% | 110% | 122% | 114% | 104% | 90.8% | 81.4% | 75% | 59.3% | 53.7% | 47.9% |
| CC(C)C(=O)Nc1ccc([N+](=O)[O-])c(C(F)(F)F)c1 | 103% | 112% | 118% | 129% | 122% | 136% | 131% | 134% | 138% | 130% | 130% | 118% | 115% | 119% | 136% | 124% | 140% | 135% | 128% | 123% | 116% | 121% | 125% | 119% | 133% | 144% | 127% | 146% | 142% | 157% | 146% | 139% | 122% |
| C[S+](=O)([O-])N1CCc2c(-c3cnc(N)nc3)nc(N3CCOCC3)nc21 | 88.6% | 102% | 91.6% | 97.5% | 100% | 96.3% | 86% | 63.4% | 62.7% | 43.5% | 30.5% | 68.5% | 82.1% | 70.4% | 71.4% | 75.3% | 66.3% | 61% | 50.5% | 38.9% | 22.2% | 18.3% | 88.7% | 105% | 113% | 104% | 92.9% | 104% | 98% | 65.9% | 55.3% | 33.5% | 22.2% |
| C=C[C@H]1CN2CC[C@H]1C[C@H]2[C@H](O)c1ccnc2ccc(OC)cc12 | 91.2% | 99.2% | 93.3% | 97% | 106% | 116% | 104% | 86% | 125% | 96.8% | 74.3% | 90.8% | 88.7% | 84% | 89.7% | 105% | 99.2% | 104% | 90.7% | 102% | 94.5% | 50.4% | 85.2% | 98.2% | 93.4% | 93.8% | 92% | 96.9% | 80% | 80.7% | 90.9% | 102% | 70.2% |
| C/C=C1\C2C=C(C)CC1(N)c1ccc(=O)[nH]c1C2 (stereo unspecified) | 103% | 108% | 120% | 109% | 28.9% | 94.2% | 98% | 106% | 102% | 68.1% | 98.7% | 105% | 113% | 109% | 99.6% | 18.2% | 103% | 106% | 114% | 104% | 88% | 96.4% | 103% | 106% | 114% | 113% | 39.9% | 115% | 114% | 108% | 104% | 85.6% | 98.2% |
| CC(C)=CC[C@@H](O)C/1=C/C(=O)C2=C(O)C=CC(=C2C1=O)O | 76.2% | 90.2% | 89.5% | 96% | 98.3% | 97.7% | 93.5% | 91.4% | 98.7% | 119% | 77.4% | 82.4% | 76.6% | 79.2% | 81.9% | 93.2% | 98.3% | 92.3% | 105% | 86.2% | 77.8% | 47.1% | 72.2% | 87.8% | 85.8% | 95.5% | 99% | 104% | 111% | 117% | 87.4% | 80.4% | 21.6% |
| C=C(C)[C@H]1Cc2c(ccc3c2O[C@@H]2COc4cc(OC)c(OC)cc4[C@@H]2C3=O)O1 | 96% | 85.9% | 103% | 85.1% | 75.5% | 92.8% | 104% | 94.5% | 57.1% | 22.6% | 14.2% | 79.7% | 94.7% | 89.6% | 108% | 60.1% | 89% | 87.8% | 80.2% | 40.3% | 15.8% | 10% | 101% | 106% | 125% | 106% | 77% | 109% | 91.4% | 86.7% | 40.4% | 23.1% | 13.3% |
